The Ki is the dissociation constant of the complex between target and ligand, obtained from inhibition or displacement.

Assay [1] concerns the target T1, human cannabis CB1 receptor (Homo sapiens, UniProt P21554).
T1 construct: expressed in transfected cells; host or cells: human embryonic kidney (HEK) cells, Semliki Forest Virus system, membrane preparation
Briefly: Affinity for cannabinoid CB1 receptors, [3H]-CP-55,940 radioligand binding on HEK cell membranes. As to the method: The affinity of the compounds of the invention for cannabinoid CB1 receptors was determined using membrane preparations of human embryonic kidney (HEK) cells in which the human cannabis CB1 receptor is transiently transfected using the Semliki Forest Virus system in conjunction with [3H]-CP-55,940 as radioligand. After incubation of a freshly prepared cell membrane preparation with the [3H]-ligand, with or without addition of compounds of the invention, separation of bound and free ligand was performed by filtration over glassfiber filters. Radioactivity on the filter was measured by liquid scintillation counting.
The compounds of formula (I) show an excellent affinity for the CB1 receptor, determined with the experimental conditions described in Devane et al. Mol. Pharmacol. 34 (1988) 605-613.

The conditions of assay [2]: doses of 10 and 20 mg daily; cited from earlier work.
The conditions of assay [3]: wild-type versus CB1 receptor knockout mice; cited from earlier work.

T1 sequence (P21554 whole entry): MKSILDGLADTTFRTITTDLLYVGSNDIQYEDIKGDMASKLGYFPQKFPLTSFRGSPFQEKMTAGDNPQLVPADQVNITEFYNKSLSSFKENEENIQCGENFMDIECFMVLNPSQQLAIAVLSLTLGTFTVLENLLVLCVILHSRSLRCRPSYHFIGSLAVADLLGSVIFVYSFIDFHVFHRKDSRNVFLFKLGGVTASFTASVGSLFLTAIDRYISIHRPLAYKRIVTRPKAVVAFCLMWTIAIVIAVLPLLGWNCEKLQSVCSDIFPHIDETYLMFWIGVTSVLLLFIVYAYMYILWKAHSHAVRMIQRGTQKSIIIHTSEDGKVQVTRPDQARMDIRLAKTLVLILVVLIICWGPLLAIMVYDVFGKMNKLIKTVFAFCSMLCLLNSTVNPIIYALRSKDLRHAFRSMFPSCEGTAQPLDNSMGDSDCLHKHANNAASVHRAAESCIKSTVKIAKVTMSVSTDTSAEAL

`O=C(N[C@@H]1CCCC[C@H]1O)c1cnc(CCC2CC2)c(-c2ccc(Cl)cc2)c1` [Example 2, 5-(4-Chloro-phenyl)-6-(2-cyclopropyl-ethyl)-N-((1R,2R)-2-hydroxy-cyclohexyl)-nicotinamide] had a Ki in assay [1] of 26 nM. Regarding `O=C(N[C@@H]1CCCC[C@H]1O)c1cnc(CCc2cncnc2)c(-c2ccc(C(F)(F)F)cc2)c1` [Example 3, N-((1R,2R)-2-Hydroxy-cyclohexyl)-6-(2-pyrimidin-5-yl-ethyl)-5-(4-trifluoromethyl-phenyl)-nicotinamide], in assay [1], the Ki worked out at 60 nM.

In turn, `O=C(N[C@@H]1CCCC[C@H]1O)c1cnc(CCc2cccnc2)c(-c2ccc(Cl)cc2)c1` [Example 7, 5-(4-Chloro-phenyl)-N-((1R,2R)-2-hydroxy-cyclohexyl)-6-(2-pyridin-3-yl-ethyl)-nicotinamide] showed an inhibition constant Ki in assay [1] of 11 nM.

For `Cc1c(C(=O)NN2CCCCC2)nn(-c2ccc(Cl)cc2Cl)c1-c1ccc(Cl)cc1` [SR 141716], the “body weight compared to placebo” value in assay [2] is “significantly reduced body weight”. Further, the food intake result in assay [3] is reported as “reduces food intake in wild-type but not knockout mice”.

(Values after patent US7781593B2, “5-phenyl-nicotinamide derivatives” (Hoffmann-La Roche Inc., priority 2006, dated 2010).)
